# In US20180296588A1, “COMBINATION THERAPY FOR TREATING VIRAL INFECTIONS” (ContraVir Pharmaceuticals, Inc., priority 2017, published 2018):
# “Also recorded” adds a separate entry of the source. Like-named read-outs stand apart in the source and are kept apart here.
# How the values were obtained:
# [1] = system: HBV DNA replication in HepAD38 cells; assay: Inhibition of intracellular HBV DNA replication in HepAD38 cells (PCR); format: cell-based; conditions: Hepatitis B virus
# Experimental: (§1) The antiviral activity of Compound I and Compound II towards HBV was tested in various cell lines (HepAD38, HepDE19 and HepDES19). The HepAD38 cell line is derived from the HepG2 cell line and engineered to stably maintain HBV (see Ladner et al., Antimicrobial Agents and Chemotherapy, 1997, 41, 1715-1720, which is incorporated herein by reference in its entirety). DE19 and DES19 cell lines are human hepatoma derived cell lines (see Guo et al. J. Virol 2007, 81, 12472-84, which is incorporated herein by reference in its entirety). Active HBV replication in the cells was suppressed by inclusion of tetracycline in the cell culture medium, which binds to a tetracycline-sensitive promoter, and induced by removal of tetracycline. HBV replication was quantified by measuring the amount of HBV DNA in the cells.
# (§2) Compound I and Compound II were applied to induced cells (i.e., cells without tetracycline), either alone or in combination at various concentrations. Next, intracellular DNA was isolated and HBV DNA was measured by polymerase chain reaction (PCR). The percent inhibition of HBV DNA was examined over the concentration ranges of 0-320 nM for Compound I and 0-640 nM for Compound II. Concentration versus effect curves were constructed for both drugs (FIGS. 1A and 1B, 2A and 2B, and 3A and 3B). […] See FIGS. 1B, 2B, and 3B (curves where [Compound II]=0).
# (§3) The level of reduction in intracellular HBV DNA by the various combinations of Compound I and II as plotted in FIGS. 1 A and 1B, 2A and 2B, and 3A and 3B, was analyzed using the Shipman-Prichard synergy scoring program (MacSynergy™ II program, Prichard et al. Antiviral Research 1990), wherein the experimentally observed effect of each combination is compared to the theoretical, additive inhibition. The comparison is used to determine combination scores (effect volumes) that represent either synergistic (positive scores) or antagonistic (negative scores) effects. All the positive and negative scores are summed to calculate overall synergy and antagonism scores that reflect the entire concentration spectrum of the two drugs. The magnitude of the scores reflect the degree of synergism/antagonism and the likelihood of the synergistic/antagonistic activities being important in vivo, according to the following four categories: (1) Synergy/Antagonism Volume=0-25 (log volume <2): insignificant synergy/antagonism (i.e., only additive effects); (2) Synergy/Antagonism Volume=25-50 (log volume 2-5): minor but significant amount of synergy/antagonism; (3) Synergy/Antagonism Volume=50-100 (log volume 5-9): moderate synergy/antagonism that may be important in vivo; (4) Synergy/Antagonism Volume >100 (log volume >9): stronger synergy/antagonism that is probably important in vivo. IC50 values for Compound I in combination with different concentrations of Compound II, and Compound II in combination with different concentrations of Compound I, are presented in Tables 6 and 7, respectively.
# [2] = system: HBV DNA replication in DE19 cells; assay: Inhibition of intracellular HBV DNA replication in HepDE19 cells (PCR); format: cell-based; conditions: Hepatitis B virus
# Experimental: as §1, §2, §3
# [3] = system: HBV DNA replication in DES19 cells; assay: Inhibition of intracellular HBV DNA replication in HepDES19 cells (PCR); format: cell-based; conditions: Hepatitis B virus
# Experimental: as §1, §2, §3
# [4] = system: HBV DNA replication in AD38, DES19 and DE19 cells; assay: In vitro combination study, statements covering AD38, DES19 and DE19 cells together; format: cell-based, hepatitis B virus; conditions: Compound I 5-320 nM and/or Compound II 10-640 nM; FIGS. 1-3
# Experimental: The antiviral activity of Compound I and Compound II towards HBV was tested in various cell lines (HepAD38, HepDE19 and HepDES19). […] Active HBV replication in the cells was suppressed by inclusion of tetracycline in the cell culture medium, which binds to a tetracycline-sensitive promoter, and induced by removal of tetracycline. HBV replication was quantified by measuring the amount of HBV DNA in the cells.
# The comparison is used to determine combination scores (effect volumes) that represent either synergistic (positive scores) or antagonistic (negative scores) effects. All the positive and negative scores are summed to calculate overall synergy and antagonism scores that reflect the entire concentration spectrum of the two drugs. […]
# HBV = assay: Anti-HBV effects in the HBV transgenic mouse model; format: in vivo, HBV transgenic mice; conditions: for serum HBsAg / liver HBsAg / serum HBV DNA / serum HBeAg: oral, 16 days; for serum HBsAg: FIG. 7; for liver HBsAg / serum HBV DNA / serum HBeAg: alone or in combination; for liver HBsAg: FIG. 8; for serum HBV DNA: FIG. 9; for serum HBeAg: FIG. 10; for liver HBV DNA (copies per mg liver): once-daily oral gavage 16 days, Compound I 10 or 50, Compound II 5 or 10 mg/kg/day, combination 10+5, FIG. 6
# Experimental: (§4) Compound I and Compound II were administered by once-daily oral gavage for 16 days to HBV transgenic mice which replicated HBV from a 1.3× overlength HBV genome integrated into the mouse genome. Expression occurred mostly in hepatocytes.
# Treatment Groups (n=8/Group):
# After 16 days of dosing, livers and serum were harvested and the following parameters were measured: a) HBV DNA by quantitative PCR (liver and serum) b) HBsAg by ELISA (liver and serum) c) HBeAg by ELISA (serum)
# [5] = Compound I concentration in serum by liquid chromatography-mass spectrometry; format: in vivo, HBV transgenic mice; conditions: 3-hr post-dose on Day 16 of dosing; FIG. 11
# Experimental: as §4
# Compound I Concentrations were Measured by Liquid Chromatography-Mass Spectrometry (Serum)
smiles,measurement,setting,value
"CCCCCCCCCCCCCCCCOCCCOP(=O)(O)CO[C@H](C)Cn1cnc2c(N)ncnc21 [Compound II, 3-(hexadecyloxy)propyl hydrogen ((R)-1-(6-amino-9H-purin 9-yl)propan-2-yloxy)methylphosphonate]",IC50,"[1]; HePAD38, read-out: IC50 for Compound II, AD38 cells, Compound I 0 nM",248 nM
same,IC50,"[1]; HePAD38, read-out: IC50 for Compound II, AD38 cells, Compound I 5 nM",259 nM
same,IC50,"[1]; HePAD38, read-out: IC50 for Compound II, AD38 cells, Compound I 10 nM",255 nM
same,IC50,"[1]; HePAD38, read-out: IC50 for Compound II, AD38 cells, Compound I 20 nM",232 nM
same,IC50,"[1]; HePAD38, read-out: IC50 for Compound II, AD38 cells, Compound I 40 nM",232 nM
same,IC50,"[1]; HePAD38, read-out: IC50 for Compound II, AD38 cells, Compound I 80 nM",229 nM
same,IC50,"[1]; HePAD38, read-out: IC50 for Compound II, AD38 cells, Compound I 160 nM",104 nM
same,IC50,"[1]; HePAD38, read-out: IC50 for Compound II, AD38 cells, Compound I 320 nM",99.7 nM
same,IC50,"[2]; HepDE19, read-out: IC50 for Compound II, DE19 cells, Compound I 0 nM",253 nM
same,IC50,"[2]; HepDE19, read-out: IC50 for Compound II, DE19 cells, Compound I 5 nM",270 nM
same,IC50,"[2]; HepDE19, read-out: IC50 for Compound II, DE19 cells, Compound I 10 nM",255 nM
same,IC50,"[2]; HepDE19, read-out: IC50 for Compound II, DE19 cells, Compound I 20 nM",213 nM
same,IC50,"[2]; HepDE19, read-out: IC50 for Compound II, DE19 cells, Compound I 40 nM",237 nM
same,IC50,"[2]; HepDE19, read-out: IC50 for Compound II, DE19 cells, Compound I 80 nM",226 nM
same,IC50,"[2]; HepDE19, read-out: IC50 for Compound II, DE19 cells, Compound I 160 nM",83.9 nM
same,IC50,"[2]; HepDE19, read-out: IC50 for Compound II, DE19 cells, Compound I 320 nM",110 nM
same,IC50,"[3]; HepDES19, read-out: IC50 for Compound II, DES19 cells, Compound I 0 nM",252 nM
same,IC50,"[3]; HepDES19, read-out: IC50 for Compound II, DES19 cells, Compound I 5 nM",237 nM
same,IC50,"[3]; HepDES19, read-out: IC50 for Compound II, DES19 cells, Compound I 10 nM",228 nM
same,IC50,"[3]; HepDES19, read-out: IC50 for Compound II, DES19 cells, Compound I 20 nM",180 nM
same,IC50,"[3]; HepDES19, read-out: IC50 for Compound II, DES19 cells, Compound I 40 nM",190 nM
same,IC50,"[3]; HepDES19, read-out: IC50 for Compound II, DES19 cells, Compound I 80 nM",188 nM
same,IC50,"[3]; HepDES19, read-out: IC50 for Compound II, DES19 cells, Compound I 160 nM",86.6 nM
same,IC50,"[3]; HepDES19, read-out: IC50 for Compound II, DES19 cells, Compound I 320 nM",63.2 nM
same,intracellular HBV DNA compared to induced cells in the absence of the drug,[4],reduced intracellular HBV DNA in a concentration-dependent manner
same,serum HBsAg,HBV; Compound II alone (5 or 10 mg/kg/day) or with low-dose Compound I (10 mg/kg/day),did not affect serum HBsAg
same,liver HBsAg,HBV,did not affect
same,serum HBV DNA,HBV,did not affect
same,serum HBeAg,HBV,did not affect
same,liver HBV DNA (copies per mg liver),HBV,decreased liver HBV DNA; also recorded: highly efficacious
CC[C@@H]1NC(=O)C([C@H](O)[C@H](C)CCCCCCNC(C)=O)N(C)C(=O)[C@@H](C(C)C)N(C)C(=O)[C@H](CC(C)C)N(C)C(=O)[C@H](CC(C)C)N(C)C(=O)[C@H](C)NC(=O)[C@H](C)NC(=O)[C@@H](CC(C)C)N(C)C(=O)[C@H](C(C)C)NC(=O)[C@H](CC(C)C)N(C)C(=O)[C@H](C)N(C)C1=O (stereo partly shown) [Compound I],IC50,"[1]; HePAD38, read-out: IC50 for Compound I, AD38 cells, Compound II 0 nM",32.1 nM
same,IC50,"[1]; HePAD38, read-out: IC50 for Compound I, AD38 cells, Compound II 10 nM",31 nM
same,IC50,"[1]; HePAD38, read-out: IC50 for Compound I, AD38 cells, Compound II 20 nM",26.5 nM
same,IC50,"[1]; HePAD38, read-out: IC50 for Compound I, AD38 cells, Compound II 40 nM",29.9 nM
same,IC50,"[1]; HePAD38, read-out: IC50 for Compound I, AD38 cells, Compound II 80 nM",29.5 nM
same,IC50,"[1]; HePAD38, read-out: IC50 for Compound I, AD38 cells, Compound II 160 nM",34.5 nM
same,IC50,"[1]; HePAD38, read-out: IC50 for Compound I, AD38 cells, Compound II 320 nM",38.2 nM
same,IC50,"[1]; HePAD38, read-out: IC50 for Compound I, AD38 cells, Compound II 640 nM",21 nM
same,IC50,"[2]; HepDE19, read-out: IC50 for Compound I, DE19 cells, Compound II 0 nM",32.9 nM
same,IC50,"[2]; HepDE19, read-out: IC50 for Compound I, DE19 cells, Compound II 10 nM",29.5 nM
same,IC50,"[2]; HepDE19, read-out: IC50 for Compound I, DE19 cells, Compound II 20 nM",26 nM
same,IC50,"[2]; HepDE19, read-out: IC50 for Compound I, DE19 cells, Compound II 40 nM",27.3 nM
same,IC50,"[2]; HepDE19, read-out: IC50 for Compound I, DE19 cells, Compound II 80 nM",27.8 nM
same,IC50,"[2]; HepDE19, read-out: IC50 for Compound I, DE19 cells, Compound II 160 nM",33.6 nM
same,IC50,"[2]; HepDE19, read-out: IC50 for Compound I, DE19 cells, Compound II 320 nM",37.5 nM
same,IC50,"[2]; HepDE19, read-out: IC50 for Compound I, DE19 cells, Compound II 640 nM",23.3 nM
same,IC50,"[3]; HepDES19, read-out: IC50 for Compound I, DES19 cells, Compound II 0 nM",33.4 nM
same,IC50,"[3]; HepDES19, read-out: IC50 for Compound I, DES19 cells, Compound II 10 nM",29.1 nM
same,IC50,"[3]; HepDES19, read-out: IC50 for Compound I, DES19 cells, Compound II 20 nM",27.2 nM
same,IC50,"[3]; HepDES19, read-out: IC50 for Compound I, DES19 cells, Compound II 40 nM",26.4 nM
same,IC50,"[3]; HepDES19, read-out: IC50 for Compound I, DES19 cells, Compound II 80 nM",27.8 nM
same,IC50,"[3]; HepDES19, read-out: IC50 for Compound I, DES19 cells, Compound II 160 nM",34.7 nM
same,IC50,"[3]; HepDES19, read-out: IC50 for Compound I, DES19 cells, Compound II 320 nM",32.4 nM
same,IC50,"[3]; HepDES19, read-out: IC50 for Compound I, DES19 cells, Compound II 640 nM",22.9 nM
same,intracellular HBV DNA compared to induced cells in the absence of the drug,[4],reduced intracellular HBV DNA in a concentration-dependent manner
same,liver HBsAg,HBV,did not affect
same,serum HBV DNA,HBV,did not affect
same,serum HBeAg,HBV,did not affect
same,serum HBsAg,HBV; high-dose Compound I (50 mg/kg/day),decreased serum HBsAg; also recorded: able to lower serum HBsAg levels
same,liver HBV DNA (copies per mg liver),HBV,decreased liver HBV DNA; also recorded: highly efficacious
same,serum Compound I concentration,[5],correlated with the effects of Compound I on HBV DNA and HBsAg
